The values below come from patent US20170246166A1, “1,2-BENZOTHIAZOLE COMPOUNDS FOR THE TREATMENT OF KIDNEY DISORDERS” (priority 2014, published 2017).

Experiment [1] addresses human PKCδ (Homo sapiens, UniProt Q05655). The experiment can be described thus: PKC isoforms based HTRF KinEASE-STK assay, PKCδ. In kind it is biochemical. The note with it: 62.5 μM ATP in substrate mix, 40 min. From the text: (§1) The purpose of this assay is to evaluate the inhibitory activity of compounds on various PKC isoforms. It has been reported that perturbations in vascular cell homeostasis caused by different PKC isoforms (PKC-α, β1/2, and PKC-δ) are linked to the development of pathologies affecting large vessel (atherosclerosis, cardiomyopathy) and small vessel (retinopathy, nephropathy, and neuropathy) complications. Geraldes, P. and King, G. L., “Activation of Protein Kinase C Isoforms and Its Impact on Diabetic Complications”, Cir.
(§2) Effects of a test compound on the kinase activity of PKCα, β2, δ, ε, ι, and ζ, are determined using a HTRF KINEASE™-STK assay kit (Cisbio) in accordance with the protocol provided by the vendor. It is a general method for measuring Serine/Threonine kinase activities using kinase substrates and a universal detection system. In the current protocol, biotinilated STK1provided in the assay kit is used as the substrate that can be phosphorylated by any PKC isoform. The HTRF KINEASE™-STK assay kit format involves the two steps (Enzymatic step and Detection step) described below. First, the kinase phosphorylates the substrate in the presence of ATP. Second, the detection reagents provided in the assay kit recognize the phosphorylated substrate.
In general terms: TR-FRET usually uses a lanthanide donor and a delayed reading to cut background.

The target of experiment [2] is T1, human PKCε (Homo sapiens, UniProt Q02156).
T1 sequence (Q02156 1-737): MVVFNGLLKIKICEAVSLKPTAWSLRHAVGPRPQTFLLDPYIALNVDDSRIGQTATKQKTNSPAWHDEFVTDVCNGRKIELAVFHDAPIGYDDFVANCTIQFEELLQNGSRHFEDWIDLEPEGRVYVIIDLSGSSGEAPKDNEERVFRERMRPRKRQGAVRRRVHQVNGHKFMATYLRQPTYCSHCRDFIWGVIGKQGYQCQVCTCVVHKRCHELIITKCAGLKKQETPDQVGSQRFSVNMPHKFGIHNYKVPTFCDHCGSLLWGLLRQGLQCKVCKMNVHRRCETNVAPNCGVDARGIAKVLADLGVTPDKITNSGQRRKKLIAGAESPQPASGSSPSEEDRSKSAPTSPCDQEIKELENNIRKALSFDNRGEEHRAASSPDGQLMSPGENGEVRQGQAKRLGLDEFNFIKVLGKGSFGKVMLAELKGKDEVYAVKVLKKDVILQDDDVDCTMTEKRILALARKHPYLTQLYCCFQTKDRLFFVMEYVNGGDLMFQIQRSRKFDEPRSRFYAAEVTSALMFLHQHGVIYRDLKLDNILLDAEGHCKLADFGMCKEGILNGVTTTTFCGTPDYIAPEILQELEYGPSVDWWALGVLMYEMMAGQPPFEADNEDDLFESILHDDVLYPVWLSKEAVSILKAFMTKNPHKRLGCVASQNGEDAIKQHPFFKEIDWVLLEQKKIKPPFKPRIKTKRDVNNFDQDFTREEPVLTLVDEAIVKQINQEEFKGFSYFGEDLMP
Nature of the experiment: PKC isoforms based HTRF KinEASE-STK assay, PKCε. In kind it is biochemical. The note with it: 25 μM ATP in substrate mix, 30 min.
Excerpt: as §1, §2

The target of experiment [3] is human PKCβ2 (Homo sapiens, UniProt P05771). The experiment can be described thus: PKC isoforms based HTRF KinEASE-STK assay, PKCβ2. In kind it is biochemical. To be noted: 25 μM ATP in substrate mix, 30 min.
Excerpt: as §1, §2

In experiment [4] the target is human PKCα (Homo sapiens, UniProt P17252). The experiment can be described thus: PKC isoforms based HTRF KinEASE-STK assay, PKCα. In kind it is biochemical. The note with it: 50 μM ATP in substrate mix, 30 min.
Excerpt: as §1, §2

In experiment [5] the test system is PKC. Nature of the experiment: Cell-based assay of PKC inhibition (PKC substrate phosphorylation in THP-1 cells). To be noted: human THP-1 cells, 1.5 h compound, then 20 nM PMA for 30 min; read-out: absolute IC50, PKC substrate phosphorylation. Here is the method: The purpose of this assay is to test the inhibitory effects of a test compound on PKC in a cell-based system by measuring the level of PKC substrate phosphorylation.
Staurosporin may be used as a positive control. It is prepared in DMSO to make up a […] solution and then serially diluted in plain RPMI 1640 culture medium (10 μM-0.0005 μM) to obtain a ten-point dilution curve. Test compounds are prepared in the same manner.
THP-1 cells (human macrophage cell line) are obtained from ATCC (ATCC TIB-202 lot 4028542). The cells are cultured in 96-well plates coated with poly-d-lysine (Becton Dickinson) with seeding density of 4000 cells/well in RPMI 1640 culture medium (Gibco) with 1% fetal bovine serum (Gibco). […]
After the incubation, the cells are first fixed in the Prefer fixative (ANATECH LTD) for 30 min at room temperature. […] Plates are scanned with an ACUMEN EXPLORER™ Laser-scanning fluorescence microplate cytometer (TTP LABTECH LTD), with 488 nm laser excitation to detect emission fluorescence at 655 nm-705 nm (emission of DNA bound propidium iodide) for cell counting/well, and emission of 505 nm-530 nm fluorescence of antibody binding to phosphorylated PKC substrates in cells. The main assay output is a ratio of total fluorescence of phosphorylated PKC substrates to total cell number (ratio=total intensity/total cell number). […]

pIC50: −log10 of the molar value.

human PKCδ, sequence (Q05655 whole entry, canonical isoform): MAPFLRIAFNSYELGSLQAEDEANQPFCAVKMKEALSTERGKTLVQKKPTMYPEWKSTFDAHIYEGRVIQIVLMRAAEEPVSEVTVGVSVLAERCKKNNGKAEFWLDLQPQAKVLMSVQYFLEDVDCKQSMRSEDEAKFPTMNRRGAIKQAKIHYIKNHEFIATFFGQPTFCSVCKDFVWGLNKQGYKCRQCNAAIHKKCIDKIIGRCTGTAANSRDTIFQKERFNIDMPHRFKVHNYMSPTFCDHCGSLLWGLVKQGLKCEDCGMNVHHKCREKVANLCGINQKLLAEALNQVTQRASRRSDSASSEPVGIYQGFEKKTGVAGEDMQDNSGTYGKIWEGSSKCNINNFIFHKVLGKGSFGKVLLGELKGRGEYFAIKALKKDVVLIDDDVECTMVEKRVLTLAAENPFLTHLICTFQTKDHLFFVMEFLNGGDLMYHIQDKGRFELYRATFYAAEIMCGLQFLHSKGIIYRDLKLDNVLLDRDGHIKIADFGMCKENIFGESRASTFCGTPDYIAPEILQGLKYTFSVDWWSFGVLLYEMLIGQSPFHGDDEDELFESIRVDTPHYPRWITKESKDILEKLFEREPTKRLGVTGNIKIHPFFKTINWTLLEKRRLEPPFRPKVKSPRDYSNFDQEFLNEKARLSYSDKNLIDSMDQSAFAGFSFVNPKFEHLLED
human PKCβ2, sequence (P05771 1-673 isoform P05771-2): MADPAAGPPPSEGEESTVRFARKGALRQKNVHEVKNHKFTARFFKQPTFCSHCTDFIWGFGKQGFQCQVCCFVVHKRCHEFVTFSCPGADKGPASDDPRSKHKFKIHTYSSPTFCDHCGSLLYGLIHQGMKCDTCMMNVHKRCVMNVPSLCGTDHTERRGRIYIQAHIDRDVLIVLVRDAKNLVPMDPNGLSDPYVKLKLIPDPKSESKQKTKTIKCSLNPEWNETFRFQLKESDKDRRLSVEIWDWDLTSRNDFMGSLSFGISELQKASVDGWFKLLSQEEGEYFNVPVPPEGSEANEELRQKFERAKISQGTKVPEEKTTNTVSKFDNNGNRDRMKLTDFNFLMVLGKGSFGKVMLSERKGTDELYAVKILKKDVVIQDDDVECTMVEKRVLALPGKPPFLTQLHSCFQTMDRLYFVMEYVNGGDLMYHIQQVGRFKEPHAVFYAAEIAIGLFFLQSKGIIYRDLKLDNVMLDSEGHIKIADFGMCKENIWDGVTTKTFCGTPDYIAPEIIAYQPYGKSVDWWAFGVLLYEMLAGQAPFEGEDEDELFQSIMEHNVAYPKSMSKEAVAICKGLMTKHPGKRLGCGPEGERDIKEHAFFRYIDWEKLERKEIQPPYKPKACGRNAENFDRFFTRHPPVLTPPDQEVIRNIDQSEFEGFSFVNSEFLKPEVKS

In general, pIC50 refers to the negative decadic logarithm of the IC50, by convention in mol/L. Turning to `C[C@@H]1CN(C(=O)c2cc(-c3c(F)cc(O)cc3F)cc3cnsc23)C[C@H](C)N1.Cl` [Example 2, 4-(7-{[(3R,5 S)-3,5-DIMETHYLPIPERAZIN-1-YL]CARBONYL}-1,2-BENZOTHIAZOL-5-YL)-3,5-DIFLUOROPHENOL HYDROCHLORIDE], the pIC50 was around 7.17 in experiment [1]; around 7.66 in experiment [2]; around 7.29 in experiment [3]; around 7.78 in experiment [4]; around 6.10 in experiment [5].
